Usually IC50 stands for the concentration needed to halve the response being measured.

A short description of the test: In vitro inhibition of Hematopoietic protein-tyrosine phosphatase using p-nitrophenyl phosphate as substrate.
In the case of `COC(=O)CNC(=O)C(NC(=O)c1ccc(/C=C/C(=O)O)cc1)c1ccccc1` (stereo not drawn), the IC50 turned out to be 20.2 µM.

In turn, `O=C(O)/C=C/c1ccc(C(=O)NC(C(=O)NCC(=O)O)c2ccccc2)cc1` (stereo not drawn) showed an IC50 of 10.4 µM. Against the preceding compound, the IC50 is about 1.9-fold lower.

The compound `CCCCCCC(NC(=O)c1ccc(/C=C/C(=O)O)cc1)C(=O)NCc1ccccc1` (stereo not drawn) had an IC50 of 6 µM.

Compound `O=C(O)/C=C/c1ccc(C(=O)NC(C(=O)NCc2ccccc2)c2ccccc2)cc1` (stereo not drawn) came in with an IC50 of 3.9 µM.

As to `CCCCNC(=O)C(NC(=O)c1ccc(/C=C/C(=O)O)cc1)c1ccccc1` (stereo not drawn), the IC50 came to 6.7 µM.

In turn, `CCCCCCC(NC(=O)c1ccc(/C=C/C(=O)O)cc1)C(=O)NCCCC` (stereo not drawn) returned an IC50 of 9 µM.

Consider `CC(C)(C)NC(=O)C(NC(=O)c1ccc(/C=C/C(=O)O)cc1)c1ccccc1` (stereo not drawn), for which the IC50 was determined as 4 µM.

Turning to `O=C(O)/C=C/c1ccc(C(=O)NC(C(=O)NC2CCCCC2)c2ccccc2)cc1` (stereo not drawn), the IC50 worked out at 6.2 µM.

`CCCCCCC(NC(=O)c1ccc(/C=C/C(=O)O)cc1)C(=O)NCC(=O)OC` (stereo not drawn) registered an IC50 of 7.2 µM.

`CCCC(NC(=O)c1ccc(/C=C/C(=O)O)cc1)C(=O)NCc1ccccc1` (stereo not drawn) had an IC50 of 6.1 µM.

In the case of `CCCCCCC(NC(=O)c1ccc(/C=C/C(=O)O)cc1)C(=O)NC(C)(C)C` (stereo not drawn), the IC50 is 7.5 µM.

On to `CCCCCCC(NC(=O)c1ccc(/C=C/C(=O)O)cc1)C(=O)NCC(=O)OCC` (stereo not drawn), for which the IC50 stood at 10 µM.

For the compound `CCOC(=O)CNC(=O)C(NC(=O)c1ccc(/C=C/C(=O)O)cc1)c1ccccc1` (stereo not drawn), the IC50 stood at 9.6 µM.

As for `CCCCCCC(NC(=O)c1ccc(/C=C/C(=O)O)cc1)C(=O)NC1CCCCC1` (stereo not drawn), the IC50 is 9 µM.

In the case of `CCCCCCC(NC(=O)c1ccc(/C=C/C(=O)O)cc1)C(=O)NCC(=O)O` (stereo not drawn), the midpoint of inhibition, the IC50, lay at 7.5 µM.

Consider `CCCCC(NC(=O)c1ccc(/C=C/C(=O)O)cc1)C(=O)NCc1ccccc1` (stereo not drawn), for which it took 6.3 µM to reach half-maximal inhibition (IC50).

Compound `CC(NC(=O)c1ccc(/C=C/C(=O)O)cc1)C(=O)NCc1ccccc1` (stereo not drawn) showed an IC50 of 7.2 µM.

`CCC(NC(=O)c1ccc(/C=C/C(=O)O)cc1)C(=O)NCc1ccccc1` (stereo not drawn) returned an IC50 of 15 µM.

The record behind these values is ChEMBL document CHEMBL1128097, “Synthesis of Nh-acyl--aminoamides on rink resin: Inhibitors of the hematopoietic protein tyrosine phosphatase (HePTP)” (Bioorg Med Chem Lett, 1995).
